“And” between values parts separate entries of the source, which are not always exact repeats. Identical values can stand only once.
Key:
[1] = Excitation and fluorescence wavelengths by fluorescence spectrometer FL4500; format: physicochemical; conditions: in nm (unit assumed)
[2] = test system: intraocular tissue (retinal tissue incl. photoreceptor cell layer, vitreous body) of Zebrafish 7-day-old embryo; experiment: Staining of intraocular tissue of Zebrafish fry by exposure to staining liquid, ocular tissue section observed by confocal microscope; format: in vivo; conditions: Zebrafish 7 dpf fry, 1 μg/mL, 1 hour exposure, fixed ocular section
[3] = aqueous solution: 10 mg/mL DMSO solution diluted to 1/500 with purified water (Examples 1 to 94)
[4] = values in a chloroform solution (Examples 95 to 106)

SMILES	λem (fluorescence wavelength) [1, 3]	λex (excitation wavelength) [1, 3]	Stained site [2]	Staining ability [2]	λem (fluorescence wavelength) [1, 4]	λex (excitation wavelength) [1, 4]
COc1ccc(N2c3ccc(/C=C/c4sc5ccccc5[n+]4CC(=O)O)cc3C3CCCC32)cc1.[Br-] (stereo not drawn) [Compound 60]	677	560	2	++		
COc1ccc(N2c3ccc(/C=C/c4sc5c6ccccc6ccc5[n+]4CCC(=O)O)cc3C3CCCC32)cc1.[I-] (stereo not drawn) [Compound 83]	682	605	2	++		
O=C1/C(=C/c2ccc3c(c2)C2CCCC2N3c2ccccc2)Oc2ccc(I)cc21 (stereo not drawn) [Compound 107]	490	380		∘		
CC/N=c1\cc2oc3cc(NCC)c(C)cc3c(-c3ccccc3C(=O)CC)c-2cc1C [Compound 90]	550	528		++		
O=C(O)CN1C(=O)/C(=C2C=C/C(=C\c3ccc4c(c3)C3CCCC3N4c3ccccc3)C\2)SC1=S (stereo not drawn) [Compound 106]	650	510		∘		
Cc1cccc(C)c1Nc1ccc2c3c(cc(=O)n2C)-c2ccccc2C(=O)c13 [Compound 122]				∘	582	534
O=C(O)CCN1C(=O)/C(=C\c2ccc3c(c2)C2CCCC2N3Cc2ccccc2)SC1=S (stereo not drawn) [Compound 47]	611	522		++		
CC[n+]1c(C=C2SCC(=O)N2c2ccccc2)sc2ccccc21.[Br-] [Compound 85]	503	353	2	++		
CCN1C(=O)/C(=c2\s/c(=C/c3ccc4c(c3)C3CCCC3N4CC)c(=O)n2CC)SC1=S (stereo not drawn) [Compound 86]	671	623		++		
CC1(C)C(/C=C/c2ccc3c(c2)C2CCCC2N3c2ccc(C=C(c3ccccc3)c3ccccc3)cc2)=[N+](CCC(=O)O)c2ccc3ccccc3c21 (stereo not drawn) [Compound 76]	724	674		++		
COc1ccc(N2c3ccc(/C=C/C4=[N+](C)c5ccccc5C4(C)C)cc3C3CCCC32)cc1.[Br-] (stereo not drawn) [Compound 74]	669	614	1	++		
CCn1c(=C2SC(=S)N(CC(=O)O)C2=O)sc(=Cc2ccc3c(c2)C2CCCC2N3c2ccccc2)c1=O (stereo not drawn) [Compound 102]	700	590	1	∘		
CN(C)c1ccc(/C=C/C=C/c2sc3ccccc3[n+]2CC(=O)O)cc1.[Br-] [Compound 24]	692	609	1	++		
CCCCCCCCN1C(=O)S/C(=c2/s/c(=C/c3ccc4c(c3)C3CCCC3N4c3ccc(C=C(c4ccccc4)c4ccccc4)cc3)c(=O)n2CC(=O)OCC)C1=O (stereo not drawn) [Compound 57]	671	590		++		
Cn1c(=O)cc2c3c(c(Nc4ccccc4)ccc31)C(=O)c1ccccc1-2 [Compound 110]				∘	614	538
CCOc1ccc(Nc2ccc3c4c(cc(=O)n3C)-c3ccccc3C(=O)c24)cc1 [Compound 117]				∘	581	538
CCOC(=O)c1cc(/C=C/C=C/c2sc3ccccc3[n+]2CC(=O)O)c2cccccc1-2.[Br-] [Compound 88]	503	450	1	++		
O=C(O)CN1/C(=C/C2=C(Cl)C(=C/c3sc4ccccc4[n+]3CC(=O)O)/CCC2)Sc2ccccc21.[Br-] [Compound 25]	671	635	1	++		
CCN1C=C/C(=C\C=C\c2cc[n+](CC)c3ccccc23)c2ccccc21.[I-] [Compound 26]	715	679	2	++		
Cc1ccc(Nc2ccc3c4c(cc(=O)n3C)-c3ccccc3C(=O)c24)c(C)c1 [Compound 120]				∘	609	537
CCOC(=O)Cn1c(=O)/c(=C\c2ccc3c(c2)C2CCCC2N3c2ccc3cc(OC)ccc3c2)s/c1=C1/SC(=O)N(CC)C1=O (stereo not drawn) [Compound 54]	647	597		++		

SMILES	λem (fluorescence wavelength) [1, 3]	λex (excitation wavelength) [1, 3]	Stained site [2]	Staining ability [2]	λem (fluorescence wavelength) [1, 4]	λex (excitation wavelength) [1, 4]
O=C(O)CN1C(=O)/C(=C\c2ccc3c(c2)[C@@H]2CCC[C@@H]2N3c2ccccc2)SC1=S [Compound 37]	633	531		+++		
CCC(/C=C1\Sc2ccccc2N1CC)=C\c1sc2ccccc2[n+]1CC.[I-] [Compound 20]	567	555	1	++		
CCN1C(=O)/C(=c2\s/c(=C/c3ccc(N(c4ccccc4)c4ccc5c(c4)C(C)(C)c4ccccc4-5)cc3)c(=O)n2CC(=O)O)SC1=S [Compound 32]	640	558		++		
Nc1c(Br)cc(O)c2c1C(=O)c1ccccc1C2=O [Compound 111]				∘	589	527
CCN1C(=O)S/C(=c2/s/c(=C/c3ccc4c(c3)C3CCCC3N4c3ccccc3)c(=O)n2CC(=O)O)C1=O (stereo not drawn) [Compound 55]	644	502		++		
CCCCN1C(=O)/C(=c2\s/c(=C/c3ccc4c(c3)C3CCCC3N4c3ccccc3)c(=O)n2CC(=O)OCC)SC1=S (stereo not drawn) [Compound 69]	609	653		++		
CCCCCCCCN1C(=O)S/C(=c2/s/c(=C/c3ccc4c(c3)C3CCCC3N4c3ccc(OC)cc3)c(=O)n2CC(=O)OCC)C1=O (stereo not drawn) [Compound 58]	676	546		++		
CCCCCCCCN1C(=O)S/C(=c2/s/c(=C/c3ccc4c(c3)C3CCCC3N4c3ccccc3)c(=O)n2CC(=O)OCC)C1=O (stereo not drawn) [Compound 59]	625	581		++		
O=C(O)CCN1/C(=C/C2=C(Cl)C(=C/c3sc4ccccc4[n+]3CCC(=O)O)/CCC2)Sc2ccccc21.[I-] [Compound 31]	664	495	2	++		
CCN1C(=O)/C(=c2\s/c(=C/c3ccc4c(c3)C3CCCC3N4c3ccc(SC)cc3)c(=O)n2CC(=O)O)SC1=S (stereo not drawn) [Compound 67]	699	570		+++		
C=CCN1C(=O)S/C(=c2/s/c(=C/c3ccc4c(c3)C3CCCC3N4c3ccccc3)c(=O)n2CC(=O)OCC)C1=O (stereo not drawn) [Compound 51]	638	580		++		
CCN1/C(=C/C=C/c2sc3ccccc3[n+]2CC)Sc2ccccc21.[I-] [Compound 27]	575	485	1	++		
O=C(O)CN1C(=O)/C(=C/c2ccc3c(c2)[C@@H]2CCC[C@@H]2N3c2ccc(C=C(c3ccccc3)c3ccccc3)cc2)SC1=S [Compound 35]	655	535		++		
CCN(CC)c1ccc2c(-c3ccc(S(=O)(=O)NCCC(=O)O)cc3S(=O)(=O)O)c3ccc(=[N+](CC)CC)cc-3oc2c1.[Na+] [Compound 95]	578 and 590	509 and 528		++		
COc1ccc(N2c3ccc(/C=C4\SC(=S)N(CC(=O)O)C4=O)cc3[C@@H]3CCC[C@@H]32)cc1 [Compound 34]	648	571		++		
CC[n+]1c(C=c2sc(=Cc3ccc4c(c3)C3CCCC3N4c3ccc(C=C(c4ccccc4)c4ccccc4)cc3)c(=O)n2-c2ccccc2)sc2ccccc21.[Br-] (stereo not drawn) [Compound 82]	721	591	2	+++		
CCCCN1C(=O)/C(=c2\s/c(=C/c3ccc4c(c3)C3CCCC3N4c3ccc(OC)cc3)c(=O)n2CC(=O)OCC)SC1=S (stereo not drawn) [Compound 68]	527	450		++		
CCC(/C=C1\Oc2ccc(-c3ccccc3)cc2N1CC)=C\c1oc2ccc(-c3ccccc3)cc2[n+]1CC.[I-] [Compound 17]	564	459	1	++		
O=C(O)CN1C(=O)/C(=C\c2cc(Br)c3c(c2)[C@@H]2CCC[C@@H]2N3c2ccc(Br)cc2)SC1=S [Compound 38]	609	482		++		
COc1ccc2cc(N3c4ccc(/C=C/c5sc6ccccc6[n+]5CC(=O)O)cc4C4CCCC43)ccc2c1.[Br-] (stereo not drawn) [Compound 64]	516	401	2	++		

Source: patent US9764046B2, “Labeling composition for intraocular tissue, labeling method of intraocular tissue, and screening method” (CANON KABUSHIKI KAISHA, priority 2008, dated 2017)
